# Measurements from PubChem BioAssay (NCI).
#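 Test compounds were applied to cells in 96-well plates for 48 hours at 5 doses. GI50 = concentration required for 50% inhibition of growth. TGI: concentration producing complete growth inhibition.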
# Experiments:
# Assay in all cases: growth of human tumour cells (NCI), 48 h
# PC-3 prostate = tested on: PC-3 prostate
# NCI-H522 lung = tested on: NCI-H522 lung
# SN12C renal = tested on: SN12C renal
# SW-620 colon = tested on: SW-620 colon
# SK-MEL-28 melanoma = tested on: SK-MEL-28 melanoma
# IGROV1 ovarian = tested on: IGROV1 ovarian
# CCRF-CEM leukemia = tested on: CCRF-CEM leukemia
# OVCAR-8 ovarian = tested on: OVCAR-8 ovarian
# LOX IMVI melanoma = tested on: LOX IMVI melanoma
# 786-0 renal = tested on: 786-0 renal
Compound,GI50 (PC-3 prostate) [µM],TGI (PC-3 prostate) [µM],GI50 (NCI-H522 lung) [µM],TGI (NCI-H522 lung) [µM],GI50 (SN12C renal) [µM],TGI (SN12C renal) [µM],GI50 (SW-620 colon) [µM],TGI (SW-620 colon) [µM],GI50 (SK-MEL-28 melanoma) [µM],TGI (SK-MEL-28 melanoma) [µM],GI50 (IGROV1 ovarian) [µM],TGI (IGROV1 ovarian) [µM],GI50 (CCRF-CEM leukemia) [µM],TGI (CCRF-CEM leukemia) [µM],GI50 (OVCAR-8 ovarian) [µM],TGI (OVCAR-8 ovarian) [µM],GI50 (LOX IMVI melanoma) [µM],TGI (LOX IMVI melanoma) [µM],GI50 (786-0 renal) [µM],TGI (786-0 renal) [µM]
Cc1cc2c3ccccc3ccc2[n+]2ccccc12,3.38,32.1,2.6,13.1,1.4,7.29,2.99,32.8,3.07,12.7,10,> 86.2,4.72,35.2,2.43,21.9,21.5,91.6,6.11,> 69.1
O=c1oc2ccc(Cl)cc2c(=O)n1-c1cc(C(F)(F)F)cc(C(F)(F)F)c1,0.302,4.49,0.25,2.57,0.259,3.8,0.328,5.95,0.273,1.69,0.412,12.9,0.388,10.2,0.323,,0.366,2.33,0.316,1.14
COC(=O)c1ccc2c(c1)C(=O)c1c-2n(CCCN)c(=O)c2cc([N+](=O)[O-])ccc12,< 0.0373,1.49,< 0.0306,0.588,< 0.0233,1.36,< 0.01,1.27,,0.81,< 0.0156,0.352,< 0.01,0.0759,< 0.0344,0.864,< 0.0115,0.154,< 0.025,0.302
ICCC(c1ccccc1)(c1ccccc1)c1ccccc1,4.32,19.4,8.35,22.7,12.2,27.2,,,3.4,12.5,4.17,16.6,3.56,16.3,11.4,25.5,4.16,19.2,3.75,14.1
O=C1OC(C2=CC(=O)c3ccccc3C2=O)C(Cl)=C1Cl (stereo not given),,75.5,,39.3,,59,,94.1,,96.2,,,,50.9,,29.8,,49.9,,43.2
O=C(Nc1ccccc1)NS(=O)(=O)c1ccc(N2N=C3c4ccccc4CC3C2c2ccccn2)cc1 (stereo not given),36.6,> 100,17.7,58.3,30.4,> 100,34,> 100,71.5,> 100,16.2,80.5,40.9,> 100,27,92.3,15.4,34.2,35.5,> 100
CC1(C)CC(OCCCC[P+](c2ccccc2)(c2ccccc2)c2ccccc2)CC(C)(C)N1O,0.205,4.04,0.275,1.16,0.306,1.18,0.337,4.86,0.628,2.02,0.477,2.02,0.246,1.52,0.333,2.61,0.317,1.25,0.738,2.23
